3 compounds from patent US20110183842A1, “Triazole and Imidazole Compounds, Use Thereof and Agents Containing Them” (BASF SE, priority 2008, published 2011) can be followed below.

In the assay the test system is Phakopsora pachyrhizi. As to the kind of experiment: Curative activity against soybean rust caused by Phakopsora pachyrhizi (greenhouse, soybean seedlings). It counts as in vivo. To be noted: 300 ppm active compound, sprayed to runoff two days after inoculation of soybean seedlings, rated after a further 10 days; untreated plants 90% infected. On the procedure:
The active compounds were prepared separately or together as a stock solution with 25 mg of active compound, which was made up to 10 ml with a mixture of acetone and/or DMSO and the emulsifier Uniperol® EL (wetting agent with emulsifying and dispersant action based on ethoxylated alkylphenols) in the volume ratio solvent/emulsifier of from 99 to 1. Subsequently, it was made up to 100 ml with water. This stock solution was diluted with the described solvent/emulsifier/water mixture to the active compound concentration indicated below. Alternatively to this, the active compounds were used as a commercially available ready-to-use solution and diluted with water to the active compound concentration indicated.
Leaves of soybean seedlings grown in pots were inoculated with a spore suspension of soybean rust (Phakpsora pachyrhizi). The pots were then placed in a chamber of high atmospheric humidity (90 to 95%) and 23 to 27° C. for 24 hours. During this time, the spores germinated and the germ tubes penetrated into the leaf tissue. The infected plants were then cultivated further in a greenhouse at temperatures between 23 and 27° C. and 60 to 80% relative atmospheric humidity. After two days, the plants were sprayed to runoff point with the active compound solution described above at the active compound concentration indicated below. After the spray coating had dried on, the test plants were cultivated in a greenhouse at temperatures between 23 and 27° C. and 60 to 80% relative atmospheric humidity for a further 10 days. The extent of the rust fungus development on the leaves was then determined visually in % infection.
Consider `CC(C)(C)C(O)C(CCCCOc1ccccc1F)n1ncnc1S` (stereo not drawn) [I.A1, 8-(2-fluorophenoxy)-4-(5-mercapto-[1,2,4]triazol-1-yl)-2,2-dimethyloctan-3-ol], for which the “extent of the rust fungus development on the leaves, determined visually in % infection” value (“extent … in % infection” below) is listed as 15%.
For the compound `CC(C)(C)C(O)C(CCCCOc1cc(F)ccc1F)n1ncnc1S` (stereo not drawn) [I.A4, 8-(2,5-difluorophenoxy)-4-(5-mercapto-[1,2,4]triazol-1-yl)-2,2-dimethyloctan-3-ol], the “extent … in % infection” value is given as 15%.
Turning to `CC(C)(C)C(O)C(CCCCOc1c(F)cccc1Cl)n1ncnc1S` (stereo not drawn) [I.A5, 8-(2-Chloro-6-fluorophenoxy)-4-(5-mercapto-[1,2,4]triazol-1-yl)-2,2-dimethyloctan-3-ol], the “extent … in % infection” value is recorded as 15%.
